For the assay, the system named is CD2F1 mice, L1210 leukemia ip, survival T/C. As to the kind of experiment: NCI In Vivo Anticancer Drug Screen. Data for tumor model L1210 Leukemia (intraperitoneal) in CD2F1 (CDF1) mice. To be noted: higher = longer survival. A digest of the protocol:
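Activity against a transplanted murine tumor was judged by comparing the compound group with a vehicle group. The outcome in the treated animals was divided by that in the controls.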

Where [1] appears, read: endpoint: mean survival time, dose: 100.0 mg/kg/injection, schedule: Q01DX001 (ip), vehicle: saline with Tween-80.
The mark [2] stands for this setting: endpoint: mean survival time, dose: 200.0 mg/kg/injection, schedule: Q01DX001 (ip), vehicle: saline with Tween-80.
The mark [3] stands for this setting: endpoint: mean survival time, dose: 400.0 mg/kg/injection, schedule: Q01DX001 (ip), vehicle: saline with Tween-80.

Where “and” joins values, the source holds several entries; their conditions need not be identical. Equal values may be shown once. Inconclusive results and toxic doses are left out.

Take `O=C(/C=C/c1cccnc1)/C=C/c1cccnc1`: the T/C by setting is: (endpoint: mean survival time, dose: 6.25 mg/kg/injection, schedule: Q01DX009 (ip), vehicle: other) 105 % of control; (endpoint: mean survival time, dose: 12.5 mg/kg/injection, schedule: Q01DX009 (ip), vehicle: other) 105 % of control; (endpoint: mean survival time, dose: 12.5 mg/kg/injection, schedule: Q04DX003 (ip), vehicle: acetone) 104 % of control; (endpoint: mean survival time, dose: 25.0 mg/kg/injection, schedule: Q01DX009 (ip), vehicle: other) 107 % of control; (endpoint: mean survival time, dose: 25.0 mg/kg/injection, schedule: Q04DX003 (ip), vehicle: acetone) 103 % of control; (endpoint: median survival time, dose: 3.13 mg/kg/injection, schedule: Q01DX005 (ip), vehicle: Klucel (hydroxypropylcellulose) (HPC)) 102 % of control. The T/C (endpoint: median survival time, dose: 6.25 mg/kg/injection, schedule: Q01DX005 (ip), vehicle: Klucel (hydroxypropylcellulose) (HPC)) is 97 % of control; the T/C (endpoint: median survival time, dose: 12.5 mg/kg/injection, schedule: Q01DX005 (ip), vehicle: Klucel (hydroxypropylcellulose) (HPC)) was 95 % of control; the T/C (endpoint: median survival time, dose: 25.0 mg/kg/injection, schedule: Q01DX005 (ip), vehicle: Klucel (hydroxypropylcellulose) (HPC)) is 98 % of control; the T/C (endpoint: median survival time, dose: 50.0 mg/kg/injection, schedule: Q01DX005 (ip), vehicle: Klucel (hydroxypropylcellulose) (HPC)) is 100 % of control.
For the molecule `C/C(=N/O)[c-]1[c-][c-][c-][c-]1.[Fe].[c-]1[c-][c-][cH-][c-]1`, the T/C is, setting by setting: (endpoint: mean survival time, dose: 50.0 mg/kg/injection, schedule: Q01DX009 (ip), vehicle: saline with Tween-80) 97 % of control; under setting [1], 95 % of control; (endpoint: mean survival time, dose: 100.0 mg/kg/injection, schedule: Q01DX009 (ip), vehicle: saline with Tween-80) 94 % of control; under setting [2], 101 % of control.
Take `CC(=O)OC(c1ccc([N+](=O)[O-])cc1)c1ccccn1` (stereo not drawn): the T/C was 96 % of control (endpoint: mean survival time, dose: 100.0 mg/kg/injection, schedule: Q04DX003 (ip), vehicle: other); 93 % of control (endpoint: mean survival time, dose: 200.0 mg/kg/injection, schedule: Q04DX003 (ip), vehicle: other); 93 % of control (endpoint: mean survival time, dose: 400.0 mg/kg/injection, schedule: Q04DX003 (ip), vehicle: other).
On to `Nc1ncnc2c1c1c(=O)[nH]c(=O)[nH]c1n2C1OC(CO)C(O)C1O` (stereo not drawn), for which the T/C runs as follows: (endpoint: mean survival time, dose: 12.5 mg/kg/injection, schedule: Q01DX005 (ip), vehicle: distilled water + Tween-80) 111 % of control; (endpoint: mean survival time, dose: 25.0 mg/kg/injection, schedule: Q01DX005 (ip), vehicle: distilled water + Tween-80) 116 % of control; (endpoint: mean survival time, dose: 50.0 mg/kg/injection, schedule: Q01DX005 (ip), vehicle: distilled water + Tween-80) 119 % of control; (endpoint: mean survival time, dose: 100.0 mg/kg/injection, schedule: Q01DX005 (ip), vehicle: distilled water + Tween-80) 158 % of control; (endpoint: mean survival time, dose: 200.0 mg/kg/injection, schedule: Q01DX005 (ip), vehicle: distilled water + Tween-80) 172 % of control; (endpoint: mean survival time, dose: 400.0 mg/kg/injection, schedule: Q01DX005 (ip), vehicle: distilled water + Tween-80) 208 % of control. Further, the T/C (endpoint: median survival time, dose: 25.0 mg/kg/injection, schedule: Q01DX009 (ip), vehicle: distilled water + Tween-80) was 114 % of control; the T/C (endpoint: median survival time, dose: 50.0 mg/kg/injection, schedule: Q01DX009 (ip), vehicle: distilled water + Tween-80) is 115 % of control and 109 % of control; the T/C (endpoint: median survival time, dose: 100.0 mg/kg/injection, schedule: Q01DX009 (ip), vehicle: distilled water + Tween-80) was 121 % of control and 110 % of control; the T/C (endpoint: median survival time, dose: 400.0 mg/kg/injection, schedule: Q01DX009 (ip), vehicle: distilled water + Tween-80) is 105 % of control.
Consider `CCCCCCCC/C=C/CCCCCC1CCCC(C)N1` (stereo not drawn), for which the T/C was 98 % of control and 102 % of control (endpoint: mean survival time, dose: 50.0 mg/kg/injection, schedule: Q04DX002 (ip), vehicle: saline with Tween-80); 94 % of control (endpoint: mean survival time, dose: 100.0 mg/kg/injection, schedule: Q04DX002 (ip), vehicle: saline with Tween-80).
Regarding `CNC(=O)Oc1cccc(NC(=O)OCCC(C)C)c1`, the T/C is 96 % of control under setting [1], 93 % of control under setting [2] and 96 % of control under setting [3].
With `CC1(C)C([N+](C)(C)C)CS1(=O)=O` (stereo not drawn), the T/C (endpoint: mean survival time, dose: 100.0 mg/kg/injection, schedule: Q01DX001 (ip), vehicle: saline) was 105 % of control; the T/C (endpoint: mean survival time, dose: 100.0 mg/kg/injection, schedule: Q04DX003 (ip), vehicle: saline) was 96 % of control; the T/C (endpoint: mean survival time, dose: 200.0 mg/kg/injection, schedule: Q01DX001 (ip), vehicle: saline) is 103 % of control; the T/C (endpoint: mean survival time, dose: 200.0 mg/kg/injection, schedule: Q04DX003 (ip), vehicle: saline) is 101 % of control; the T/C (endpoint: mean survival time, dose: 400.0 mg/kg/injection, schedule: Q01DX001 (ip), vehicle: saline) is 103 % of control; the T/C (endpoint: mean survival time, dose: 400.0 mg/kg/injection, schedule: Q04DX003 (ip), vehicle: saline) is 96 % of control.
For `Nc1cc(NC(c2ccccc2)c2ccccc2)c2[nH]cnc2n1`, the T/C runs as follows: (endpoint: mean survival time, dose: 100.0 mg/kg/injection, schedule: Q01DX001 (ip), vehicle: other) 91 % of control; (endpoint: mean survival time, dose: 200.0 mg/kg/injection, schedule: Q01DX001 (ip), vehicle: other) 95 % of control.
With `Nc1c2c(nn1-c1ccccc1)C(=O)N(CCc1ccccc1)C2`, the T/C (endpoint: mean survival time, dose: 400.0 mg/kg/injection, schedule: Q04DX003 (ip), vehicle: saline with Tween-80) was 90 % of control.
`O=C1N[C@@H]2C(=C[C@H](O)[C@@H](O)[C@H]2O)c2cc3c(c(O)c21)OCO3`: the T/C (endpoint: median survival time, dose: 0.62 mg/kg/injection, schedule: Q01DX009 (ip), vehicle: saline with Tween-80) is 110 % of control; the T/C (endpoint: median survival time, dose: 1.25 mg/kg/injection, schedule: Q01DX009 (ip), vehicle: saline with Tween-80) was 108 % of control; the T/C (endpoint: median survival time, dose: 2.5 mg/kg/injection, schedule: Q01DX009 (ip), vehicle: saline with Tween-80) was 113 % of control; the T/C (endpoint: median survival time, dose: 5.0 mg/kg/injection, schedule: Q01DX009 (ip), vehicle: saline with Tween-80) is 115 % of control.
`CC(=O)c1ccc[n+](Cc2c(Cl)cccc2Cl)c1`: the T/C is 107 % of control (endpoint: mean survival time, dose: 12.5 mg/kg/injection, schedule: Q04DX003 (ip), vehicle: saline); 98 % of control (endpoint: mean survival time, dose: 25.0 mg/kg/injection, schedule: Q04DX003 (ip), vehicle: saline); 96 % of control (endpoint: mean survival time, dose: 50.0 mg/kg/injection, schedule: Q04DX003 (ip), vehicle: saline).
As for `CC(C)(C)S/C(=N/N=O)NN=O`, the T/C reads like this: under setting [1], 100 % of control; under setting [2], 102 % of control; under setting [3], 94 % of control.
Turning to `CC(=O)OC1CSC1`, the T/C by setting is: (endpoint: mean survival time, dose: 30.0 mg/kg/injection, schedule: Q01DX001 (ip), vehicle: saline with Tween-80) 106 % of control; (endpoint: mean survival time, dose: 60.0 mg/kg/injection, schedule: Q01DX001 (ip), vehicle: saline with Tween-80) 109 % of control; (endpoint: mean survival time, dose: 120.0 mg/kg/injection, schedule: Q01DX001 (ip), vehicle: saline with Tween-80) 101 % of control.
For `Nc1nc(N)c(-c2ccc(Cl)cc2)c(COc2ccc(CCC3(CCl)OCCO3)cc2)n1`, the T/C was 101 % of control (endpoint: mean survival time, dose: 25.0 mg/kg/injection, schedule: Q01DX001 (ip), vehicle: saline with Tween-80); 101 % of control (endpoint: mean survival time, dose: 50.0 mg/kg/injection, schedule: Q01DX001 (ip), vehicle: saline with Tween-80); 108 % of control under setting [1].
With `Oc1c(Cl)cc(C(c2cc(Cl)c(O)c(Cl)c2)C(c2cc(Cl)c(O)c(Cl)c2)c2cc(Cl)c(O)c(Cl)c2)cc1Cl`, the T/C is, setting by setting: (endpoint: mean survival time, dose: 12.5 mg/kg/injection, schedule: Q01DX009 (ip), vehicle: Klucel (hydroxypropylcellulose) (HPC)) 95 % of control; (endpoint: mean survival time, dose: 25.0 mg/kg/injection, schedule: Q01DX009 (ip), vehicle: Klucel (hydroxypropylcellulose) (HPC)) 97 % of control; (endpoint: mean survival time, dose: 50.0 mg/kg/injection, schedule: Q01DX009 (ip), vehicle: Klucel (hydroxypropylcellulose) (HPC)) 103 % of control; (endpoint: mean survival time, dose: 100.0 mg/kg/injection, schedule: Q01DX009 (ip), vehicle: Klucel (hydroxypropylcellulose) (HPC)) 106 % of control; (endpoint: mean survival time, dose: 200.0 mg/kg/injection, schedule: Q01DX009 (ip), vehicle: Klucel (hydroxypropylcellulose) (HPC)) 115 % of control; (endpoint: mean survival time, dose: 400.0 mg/kg/injection, schedule: Q01DX009 (ip), vehicle: Klucel (hydroxypropylcellulose) (HPC)) 96 % of control.
As for `O=[N+]([O-])c1ccc(N/N=C(\COc2ccccc2)c2ccccc2)c([N+](=O)[O-])c1`, the T/C by setting is: (endpoint: mean survival time, dose: 37.5 mg/kg/injection, schedule: Q01DX001 (ip), vehicle: saline with Tween-80) 98 % of control; (endpoint: mean survival time, dose: 75.0 mg/kg/injection, schedule: Q01DX001 (ip), vehicle: saline with Tween-80) 97 % of control; (endpoint: mean survival time, dose: 150.0 mg/kg/injection, schedule: Q01DX001 (ip), vehicle: saline with Tween-80) 97 % of control.
Regarding `CC(C)=[C-]N(C)C.[C-]#[O+].[C-]#[O+].[C-]#[O+].[C-]#[O+].[C-]#[O+].[Mn]`, the T/C (endpoint: mean survival time, dose: 12.5 mg/kg/injection, schedule: Q04DX002 (ip), vehicle: saline with Tween-80) is 110 % of control and the T/C (endpoint: mean survival time, dose: 25.0 mg/kg/injection, schedule: Q04DX002 (ip), vehicle: saline with Tween-80) was 103 % of control.

These data come from PubChem BioAssay AID256 (DTP/NCI, 2004).
